Data published in ChEMBL document CHEMBL5725474, “Carbazole compounds useful as bromodomain inhibitors” (2018).

Target: Bromodomain-containing protein 4 (Homo sapiens, UniProt O60885)
Experiment: Time Resolved Fluorescence Resonance Energy Transfer (TR-FRET) Assay: The binding of compounds to bromodomain BRD4 (44-168), BRD4 (333-460), and BRD4 (1-477 or 44-460) was assessed using a time resolved fluorescent resonance energy transfer binding assay (1), that measures the binding of a fluorescently labeled probe molecule to the bromodomain protein. The bromodomain protein, fluorescent probe molecule (either a biotinylated histone peptide or a fluorescently labeled small molecule), and dose-responsed test compound are incubated together to reach thermodynamic equilibrium. In the absence of a test compound, the bromodomain and small molecule are bound, resulting in a high fluorescent signal. In the presence of a sufficient concentration of inhibitor, this intercation is disrupted resulting in a loss of fluorescent resonance energy transfer.

| Compound | IC50 [nM] |
| --- | --- |
| Cc1noc(C)c1-c1cc(C(N)=O)c2c(c1)c1ccc(N3CCOCC3)cc1n2CC1CC1 | < 5000 |
| Cc1noc(C)c1-c1cc(C(N)=O)c2c(c1)c1ccc(S(C)(=O)=O)cc1n2S(=O)(=O)C1CC1 | < 500 |
| Cc1noc(C)c1-c1cc(C(N)=O)c2c(c1)c1ccc(N3CCCC3=O)cc1n2CC1CC1 | < 50 |
| Cc1noc(C)c1-c1cc(C(=O)NCC2CC2)c2c(c1)c1c(S(C)(=O)=O)cccc1n2CC1CC1 | < 500 |
| COC1CN(C(=O)c2ccc3c4cc(-c5c(C)noc5C)cc(C(N)=O)c4n(S(=O)(=O)C4CC4)c3c2)C1 | < 50 |
| COC(=O)Nc1ccc2c3cc(-c4c(C)noc4C)cc(C(N)=O)c3n(CC3CC3)c2c1 | < 500 |
| Cc1noc(C)c1-c1cc(C(N)=O)c2c(c1F)c1ccc(C(=O)N3C[C@@H](C)O[C@@H](C)C3)cc1n2CC1CC1 | < 50 |
| Cc1noc(C)c1-c1cc(C(N)=O)c2c(c1)c1ccc(C(C)(C)O)cc1n2S(C)(=O)=O | < 50 |
